Two molecules from patent US11554124B2, “Hematopoiesis-enhancing agent” (priority 2018, dated 2023) can be followed below.

The experiment has as its system bone marrow erythroblasts. Nature of the experiment: Flow cytometry of bone marrow cells / erythroblast subsets (Ter119/CD71 double staining) of treated mice. The class given is in vivo, mouse. On the procedure:
Wild-type mice with a genetic background of C57BL/6J were purchased from Charles River Laboratories, Inc. Mice at 8 to 14 weeks of age were used for analysis. For CLEU treatment (50 mg/body), a solution of cycloleucine (CLEU) was prepared by diluting cycloleucine (CLEU) (Sigma) in PBS (50 mg/ml), and 1 ml of the CLEU solution was administered intraperitoneally. For AKBA treatment (2 mg/body), 2 mg AKBA (Enzo Life Sciences)/20% DMSO/1 mL PBS solution was administered intraperitoneally. Vehicle without AKBA was used as a control. For measuring complete blood count of peripheral blood, peripheral blood was collected from facial veins and counted by use of an automated animal blood cell counter (microsemi LC-662). All of the experiments conducted in this study were approved by the Animal Experiment Committee of the Environmental Safety Committee of Tohoku University.
BM cells and spleen cells were harvested in a conventional manner. Cells were stained with combinations of antibodies specific to erythroblasts and mature cells, to thereby identify them. The cells were visualized with antibody and streptavidin-peridinin chlorophyll protein-cyanin 5.5. The antibodies used in this study were as follows: anti-CD3e (145-2C11), anti-CD4 (GK1.5 or RM4.5), anti-CD8a (53-6.7), anti-Gr-1 (RB6-8C5), anti-B220 (RA3-6B2), anti-Ter-119 (TER-119), anti-CD71 (R17217 or C2). Cells were stained with […] (Sigma), and dead cells were excluded from analysis. Flow cytometric analysis and cell sorting were performed according to the manufacturer's protocol using FACS AriaII (BD), and then the obtained data were analyzed using FlowJo software (TreeStar).
Additionally, MAT inhibitor PF9366 (PF) was administered to mice and the effect thereof was investigated. Vehicle (DMSO) (control (Ctrl)) or 10 mM PF9366 (prepared at a concentration of 40 μl/40 ml water) was provided in a drinking bottle (0 h). In addition, 80 μl of vehicle (DMSO) or 80 μl of 10 mM PF9366 dissolved in 1 ml PBS was also administered intraperitoneally at 0 h and 24 h. Analysis was carried out at Day 2 (48 h).
MAT inhibitor 3-acetyl-11-keto-β-boswellic acid (AKBA; 2 mg/body) was intraperitoneally administered to mice at 0 and 24 hours, and analyzed after 48 hours.
In general terms: In flow cytometry, cells or beads pass a laser one at a time.

Where [1] appears, read: PF9366 in drinking water plus i.p. at 0 h and 24 h, Day 2 (48 h), vs DMSO.

As for `CC(=O)O[C@@H]1CC[C@@]2(C)[C@@H](CC[C@]3(C)[C@@H]2C(=O)C=C2[C@@H]4[C@@H](C)[C@H](C)CC[C@]4(C)CC[C@]23C)[C@@]1(C)C(=O)O` [AKBA, 3-acetyl-11-keto-β-boswellic acid], where the note is “AKBA 2 mg/body i.p. at 0 and 24 hours, analyzed after 48 hours, Ter119/CD71 double staining, vs vehicle”, the maturation of erythroblasts entry is “significantly up-regulated”.
With `CN(C)CCc1nnc2cc(-c3ccccc3)c3cc(Cl)ccc3n12` [PF9366, 2-(7-chloro-5-phenyl-[1,2,4]triazolo[4,3-a]quinolin-1-yl)-N,N-dimethylethan-1-amine], the “subset from which the increase of erythroblast was initiated” value (PF9366 10 mM: 40 μl/40 ml drinking water plus 80 μl in 1 ml PBS i.p. at 0 h and 24 h, Day 2 (48 h), vs DMSO) was “initiated from subset III”. Under setting [1], the erythroblast maturation index entry is listed as “significant difference” and the maturation of erythroblasts result was “significantly up-regulated”.
